Measurements: the supplement of paper PMC11451515

Key:
Test in all cases: AUC of viability dose-response curve (% viability x log10 dose units); higher = less sensitive
Conditions in all cases: 48 h
P12-Ichikawa = tested on: P12-Ichikawa
How it was run: (§1)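 In 1536-well plates, leukemia cells adapted to each medium (500 or 1000 cells/well) were exposed for 48 h at 37°C to library compounds in DMSO across 11 threefold doses, 47 μM down to 0.79 nM. Viability was read by CellTiter-Glo One luminescence and normalised per plate to DMSO and cell-free wells. A four-parameter log-logistic fit over log10 doses was integrated by trapezoidal rule. This yielded the area under the curve, with over-full-viability curves scaled and quality-control failures dropped.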

SEM cells = tested on: SEM cells
How it was run: as §1

NOMO1 = tested on: NOMO1
How it was run: as §1

[1] = RPMI 5 mM glucose + 10% dialyzed FBS

| SMILES | AUC of viability dose-response curve (P12-Ichikawa; HPLM + 10% dialyzed FBS) | AUC of viability dose-response curve (P12-Ichikawa; RPMI 5 mM glucose + 10% FBS) | AUC of viability dose-response curve (P12-Ichikawa; [1]) | AUC of viability dose-response curve (SEM cells; HPLM + 10% dialyzed FBS) | AUC of viability dose-response curve (SEM cells; RPMI 5 mM glucose + 10% FBS) | AUC of viability dose-response curve (SEM cells; [1]) | AUC of viability dose-response curve (NOMO1; HPLM + 10% dialyzed FBS) | AUC of viability dose-response curve (NOMO1; RPMI 5 mM glucose + 10% FBS) | AUC of viability dose-response curve (NOMO1; [1]) |
| --- | --- | --- | --- | --- | --- | --- | --- | --- | --- |
| COC1=C(OCCCN2CCOCC2)C=CC\3=C1/N=C(/NC(=O)C4=CN=C(N)N=C4)N5CC/N=C35 | 385 | 344 | 364 | 369 | 360 | 358 |  |  |  |
| Nc1ccc([S+](=O)([O-])Nc2ccnn2-c2ccccc2)cc1 | 470 | 455 | 464 | 444 | 452 | 440 | 446 | 467 | 451 |
| CC(=O)Oc1ccccc1C(=O)Nc1ncc([N+](=O)[O-])s1 | 457 | 446 | 442 | 441 | 454 | 470 | 459 | 464 | 420 |
| COC(=O)C\1=C(C)\N\C(=C(/C1C2=CC=CC3=NON=C23)C(=O)OC(C)C)C (configuration not stated) | 455 | 454 | 438 | 468 | 449 | 457 | 437 | 441 | 464 |
| CCCCCNC(=O)N1CCC(CN(Cc2ccc(Cl)cc2)Cc2ccc([N+](=O)[O-])s2)C1 (configuration not stated) | 443 | 446 | 445 | 461 | 447 | 456 |  |  |  |
| OCC(O)C(O)C(O)CO (configuration not stated) | 455 | 432 | 429 | 421 | 429 | 402 | 430 | 414 | 447 |
| CC12CC3CC(C)(C1)CC(N)(C3)C2 | 450 | 464 | 467 | 440 | 419 | 459 | 446 | 457 | 461 |
| COC1=CC=C(C(=C1)OC(C)C)C/2=N/[C@@H]([C@@H](N2C(=O)N3CCNC(=O)C3)C4=CC=C(Cl)C=C4)C5=CC=C(Cl)C=C5 | 404 | 427 | 413 | 279 | 250 | 253 | 409 | 439 | 434 |
| O=C(c1ccccc1)c1ccc2n1CCC2C(=O)O (configuration not stated) | 423 | 413 | 424 | 439 | 421 | 426 | 461 | 458 | 464 |
| CCCCN(CCCC)CC(O)c1cc(Cl)cc2c1-c1ccc(Cl)cc1/C2=C/c1ccc(Cl)cc1 (configuration not stated) | 446 | 472 | 448 | 463 | 438 | 434 | 456 | 449 | 461 |
| CN1\C=N/C2=CC=C(NC3=CC(=CC=C3C)NC(=O)C4=CC(=CC=C4)C(C)(C)C#N)C=C2C1=O | 421 | 395 | 422 | 424 | 431 | 433 | 376 | 377 | 355 |
| COC(=O)c1ccc2c(c1)NC(=O)/C2=C(\Nc1ccc(N(C)C(=O)CN2CCN(C)CC2)cc1)c1ccccc1 | 458 | 462 | 451 |  |  |  | 453 | 459 | 441 |
| O=C(O)c1cc(/N=N/c2ccc([S+](=O)([O-])Nc3ccccn3)cc2)ccc1O | 465 | 468 | 474 | 452 | 465 | 453 | 471 | 466 | 470 |
| N[C@@H]1CONC1=O | 468 | 474 | 465 | 418 | 443 | 431 | 474 | 441 | 464 |
| CCCCOCCOc1nc(-c2ccc(C(=O)O)c(F)c2)sc1C | 464 | 434 | 439 | 456 | 460 | 475 | 420 | 437 | 436 |
| CC[C@H]1OC(=O)[C@H](C)C(=O)[C@H](C)[C@@H](O[C@H]2O[C@H](C)C[C@H](N(C)C)[C@H]2O)[C@](C)(OC)C[C@@H](C)C(=O)[C@H](C)[C@H]2N(CCCCn3cnc(-c4cccnc4)c3)C(=O)O[C@]12C | 452 | 444 | 395 | 447 | 462 | 453 | 439 | 447 | 459 |
| Cc1ccnc2c1NC(=O)c1cccnc1N2C1CC1 | 474 | 464 | 473 | 457 | 439 | 444 | 405 | 424 | 436 |
| C=C[C@H]1CN2CCC1C[C@@H]2C(O)c1ccnc2ccc(OC)cc12 (some centres not stated) | 473 | 470 | 467 |  |  |  | 462 | 467 | 463 |
| O=P(O)(O)C(O)(Cn1ccnc1)P(=O)(O)O | 448 | 445 | 450 | 427 | 425 | 424 | 471 | 474 | 477 |

| SMILES | AUC of viability dose-response curve (P12-Ichikawa; HPLM + 10% dialyzed FBS) | AUC of viability dose-response curve (P12-Ichikawa; RPMI 5 mM glucose + 10% FBS) | AUC of viability dose-response curve (P12-Ichikawa; [1]) | AUC of viability dose-response curve (SEM cells; HPLM + 10% dialyzed FBS) | AUC of viability dose-response curve (SEM cells; RPMI 5 mM glucose + 10% FBS) | AUC of viability dose-response curve (SEM cells; [1]) | AUC of viability dose-response curve (NOMO1; HPLM + 10% dialyzed FBS) | AUC of viability dose-response curve (NOMO1; RPMI 5 mM glucose + 10% FBS) | AUC of viability dose-response curve (NOMO1; [1]) |
| --- | --- | --- | --- | --- | --- | --- | --- | --- | --- |
| C[C@]12CC[C@H]3[C@@H](CCC4=CC(=O)CC[C@@H]43)[C@@H]1CC[C@@H]2OC(=O)CCc1ccccc1 | 469 | 474 | 470 | 415 | 416 | 443 | 463 | 469 | 466 |
| COc1ccc2c(c1)CN(C)CC2c1ccc(Cl)c(Cl)c1 (configuration not stated) | 475 | 471 | 461 | 465 | 467 | 443 | 430 | 463 | 437 |
| CCCNC(=O)Nc1ccc(Oc2ncnc3cc(OC)c(OC)cc23)cc1Cl | 438 | 433 | 440 | 441 | 402 | 413 | 419 | 417 | 424 |
| C[C@@H](CN1CC(=O)NC(=O)C1)N1CC(=O)NC(=O)C1 | 278 | 317 | 303 | 233 | 206 | 198 | 273 | 296 | 301 |
| COc1c(C)c2c(c(O)c1C/C=C(\C)CCC(=O)O)C(=O)OC2 | 426 | 392 | 404 | 436 | 414 | 445 | 421 | 425 | 428 |
| COc1cc2c(cc1OC)CN(CCc1ccc(NC(=O)c3cc(OC)c(OC)cc3NC(=O)c3cnc4ccccc4c3)cc1)CC2 | 412 | 401 | 402 | 445 | 418 | 432 | 459 | 458 | 464 |
| Cc1ccc([S+](=O)([O-])OCC(=O)Nc2ccc(C(=O)O)c(O)c2)cc1 | 446 | 469 | 465 | 458 | 438 | 455 | 469 | 460 | 448 |
| Oc1nc(-c2ccc(C(F)(F)F)cc2)nc2c1CSCC2 | 464 | 464 | 436 | 438 | 457 | 449 | 477 | 441 | 466 |
| C=CC(=O)Nc1cc2c(Nc3ccc(F)c(Cl)c3)ncnc2cc1OCCCN1CCOCC1 | 421 | 441 | 442 |  |  |  | 421 | 429 | 438 |
| CCc1ccc(/C=C2/SC(=S)NC2=O)cc1 | 400 | 386 | 377 |  |  |  | 377 | 387 | 375 |
| O=C(O)C(=O)c1cn(Cc2ccccc2)c2ccc(-c3ccc(OC(F)(F)F)cc3)cc12 | 456 | 471 | 466 | 451 | 448 | 444 | 449 | 460 | 443 |
| CCCCOc1c(C(=O)c2c(F)cc(C)cc2F)cnc2[nH]ncc12 | 470 | 458 | 435 | 410 | 410 | 413 | 460 | 444 | 424 |
| CC(C)(O)CC(=O)NCCn1ccc2ncnc(Nc3ccc(Oc4cccc(C(F)(F)F)c4)c(Cl)c3)c21 | 425 | 437 | 436 | 436 | 415 | 432 | 415 | 450 | 433 |
| O=C(CCCN1CCN(c2ccc(F)cc2)CC1)NC1c2ccccc2CSc2ccccc21 (configuration not stated) | 455 | 434 | 434 | 429 | 388 | 402 | 427 | 440 | 438 |
| Cc1coc2c1C(=O)C(=O)c1c-2ccc2c1CCCC2(C)C | 450 | 444 | 438 | 439 | 432 | 421 | 437 | 455 | 450 |
| CC1=CC(=CC(=C1C\C2=N\CCN2)C)C(C)(C)C | 473 | 458 | 463 | 443 | 471 | 460 | 395 | 420 | 407 |
| NC(=O)c1ccc(N(C(N)=O)c2c(F)cccc2F)nc1-c1ccc(F)cc1F | 476 | 468 | 449 | 412 | 454 | 411 | 472 | 447 | 429 |
| NC[C@H]1O[C@H](O[C@@H]2[C@H](O)[C@@H](O[C@H]3O[C@H](CO)[C@@H](O)[C@H](N)[C@H]3O)[C@H](N)C[C@@H]2N)[C@H](O)[C@@H](O)[C@@H]1O | 445 | 466 | 461 |  |  |  | 455 | 452 | 458 |
